Measured values taken from US6303761A, “Triaminepentaacetic acid compound and paramagnetic metal complex prepared from using the compound as ligand” (Department of Health The Executive Yuan, Republic of China, priority 1999, dated 2001).
Values joined by “and” are separate entries in the source; they are usually repeats but may differ in a detail not shown here. Identical values can stand only once. Like-named read-outs stand apart in the source and are kept apart here.

What was measured:
[1] = Inner-sphere water molecules (Dy(III)-induced ^17 O-NMR chemical shift, X-ray, deduction); type: physicochemical
Description: The chemical shift (d.i.s.) of the Dy(III)-induced ^17 O is determined by ^17 O-NMR. The relationship between the Dy(III) complex concentration and d.i.s. is shown in equation (14)
d.i.s.=qΔ[Dy(ligand)n ](H2 O)q /[H2 O] (14)
The slope of equation (14) is qΔ/[H2 O], and q refers to the inner-sphere water molecule. […] It is known that Dy(III) can bind with eight water molecules at low concentration, and q is in a linear relationship with the slope.

[2] = cited from earlier work
pM value, Zn^2+ = settings: pH 7.4, TL 1.1×10^-5, TM 1.0×10^-6 mol dm^-3
[3] = type: physicochemical; settings: pH 7.4, plasma concentrations of Ca^2+, Cu^2+ and Zn^2+
[4] = Thermodynamic and conditional stability constants of the Zn^2+ complexes (potentiometric titration, program BEST); type: physicochemical; settings: 25.0 ± 0.1° C., aqueous Me4 NNO3, I = 0.10 mol dm^-3
Description: (§1) The pH electrode was calibrated using two standard buffer solutions with pH 7.0±0.05 and pH 4.0±0.05 respectively. The ionic strength was 0.10 mol dm^-3 Me4 NNO3 ((CH3)4 NNO3). […] The titrant used was 0.1 mol dm^-3 NaOH with a titration amount of 0.005 ml/time.
(§2) (1) Direct Potentiometric Titration: The metal ion and ligand is mixed in 1:1 molar ratio.
(§3) (2) Ligand-ligand Competition Titration: The metal ion, ligand, and EDTA is mixed in 1:1:1 molar ratio.
(§4) M: metal ion, L: organic ligand, ML: metal complex The conditional stability constant is defined by equation (2): [formula]
(§5) The relationship between the conditional stability constant and the thermodynamic stability constant is defined by equation (3): [formula]
(§6) K2^H [H^+ ]^2 + . . . }^-1 =KthermαH

[5] = Selectivity constant of the ligand for Gd^3+ over Ca^2+; type: physicochemical
pM value, Cu^2+ = settings: pH 7.4, TL 1.1×10^-5, TM 1.0×10^-6 mol dm^-3
[6] = Thermodynamic and conditional stability constants of the Ca^2+ complexes (potentiometric titration, program BEST); type: physicochemical; settings: 25.0 ± 0.1° C., aqueous Me4 NNO3, I = 0.10 mol dm^-3
Description: as §1, §2, §3, §4, §5, §6

[7] = Thermodynamic and conditional stability constants of the Cu^2+ complexes (potentiometric titration, program BEST); type: physicochemical; settings: 25.0 ± 0.1° C., aqueous Me4 NNO3, I = 0.10 mol dm^-3
Description: as §1, §2, §3, §4, §5, §6

[8] = Species distribution of the ligands at various pH values (SPE, SPEPLOT); type: physicochemical; settings: 7.0×10^-3 mol dm^-3 system
Text: The average difference between observed and calculated -log[H^+ ] was <0.04 throughout all titrations.
When pH=7.0, the concentration of [H2 L]^3- is the maximum (97.5%). In the pH 3-5 range, the dominant species is the third protonated species [H3 L]^2-. When pH=3.7, the concentration of [H3 L]^2- is the maximum (87.75%). […] When pH=9.8, the concentration of [HL]^4- is the maximum (77.5%). In the pH 2-3 range, the dominant species is the fourth protonated species [H4 L]^-. When pH=2.3, the concentration of [H4 L]^- is the maximum (60.9%). In the pH range greater than 11, the dominant species is the deprotonated species [L]^5-.
When pH=2.7, the concentration of [H4 L]^- is the maximum (55.9%). In the pH 3.5-7 range, the dominant species is the third protonated species [H3 L]^2-. When pH=5, the concentration of [H3 L]^2- is the maximum (97.7%). In the pH 7-9 range, the dominant species is the second protonated species [H2 L]^3-. When pH=8.1, the concentration of [H2 L]^3- is the maximum (86.5%). […] When pH=9.9, the concentration of [HL]^4- is the maximum (71.6%). In the pH range greater than 12, the dominant species is the deprotonated species [L]^5-. In the pH range less than 2, the dominant species is the totally protonated species [H5 L].
When pH=2.8, the concentration of [H4 L]^- is the maximum (45.9%). In the pH 3.5-7.5 range, the dominant species is the third protonated species [H3 L]^2-. When pH=5.2, the concentration of [H3 L]^2- is the maximum (99.0%). In the pH 8-9.5 range, the dominant species is the second protonated species [H2 L]^3-. When pH=8.6, the concentration of [H2 L]^3- is the maximum (78.8%). In the pH 9.5-11 range, the dominant species is the first protonated species [HL]^4-. When pH=10.1, the concentration of [HL]^4- is the maximum (67.2%). In the pH range greater than 12, the dominant species is the deprotonated species [L]^5-. In the pH range less than 2, the dominant species is the totally protonated species [H5 L].

[9] = Protonation constants of the organic ligands (potentiometric titration, program PKAS); type: physicochemical; settings: for pKa: aqueous me4nno3, 25.0 ± 0.1° C., aqueous Me4 NNO3, I = 0.10 mol dm^-3
Description: The ionic strength was 0.10 mol dm^-3 Me4 NNO3 ((CH3)4 NNO3). […] The titrant used was 0.1 mol dm^-3 NaOH with a titration amount of 0.005 ml/time.

pM value, Ca^2+ = settings: pH 7.4, TL 1.1×10^-5, TM 1.0×10^-6 mol dm^-3
pM value, Gd^3+ = settings: pH 7.4, TL 1.1×10^-5, TM 1.0×10^-6 mol dm^-3
[10] = cited from earlier work; for LD50: in vivo
[11] = Relaxivity R1 and its pH dependence; settings: pH 6.3 ± 0.1
[12] = 25.0 ± 0.1° C., aqueous Me4 NNO3, I = 0.10 mol dm^-3
[13] = read-out: first protonation constant log K1^H, [HL]/[L][H]
[14] = read-out: fourth protonation constant log K4^H, [H4 L]/[H3 L][H]
[15] = read-out: second protonation constant log K2^H, [H2 L]/[HL][H]
[16] = read-out: third protonation constant log K3^H, [H3 L]/[H2 L][H]

O=C([O-])CN1CCN(CC(=O)[O-])CCN(CC(=O)[O-])CCN(CC(=O)[O-])CC1.[Dy+3] [[Dy(DOTA)]^-]
q (inner-sphere water) ([1]; Dy(III)-induced ^17 O-NMR shift): 0.8
inner-sphere water molecules ([1]; ^17 O-NMR): only one

O=C(O)CN1CCCN(CC(=O)O)CCN(CC(=O)O)CCN(CC(=O)O)CCN(CC(=O)O)CCCN(CC(=O)O)CCN(CC(=O)O)CCN(CC(=O)O)CC1 [H8 HEC, 1,4,7,10,14,17,20,23-octaazacyclohexacosane-1,4,7,10,14,17,20,23-octaacetic acid]
water solubility of the bimetallic lanthanide complex [2]: higher water solubility

[Cl][Dy]([Cl])[Cl] [DyCl3]
slope of d.i.s. versus Dy(III) complex concentration ([1]; ^17 O-NMR, FIG. 11): -445.6

O=C(O)CN(CCCN(CC(=O)O)CC(=O)O)CCCN(CC(=O)O)CC(=O)O [TTRA, 3,7,11-tri(carboxymethyl)-3,7,11-triazatridecanedioic acid]
pM (Zn^2+) (pM value, Zn^2+): 13.67
modified selectivity constant log K sel' [3]: 2.64
log K [GdHL]/[GdL][H] [12]: 5.95
log K [GdL]/[Gd][L] [12]: 15.89
conditional stability constant log KGdL' (pH 7.4): 10.93
log K [ZnHL]/[ZnL][H] [4]: 4.15
log K [ZnL]/[Zn][L] [4]: 19.37
selectivity constant log K(Gd/Ca) [5]: 2.37
pM (Cu^2+) (pM value, Cu^2+): 13.12
log K [CaHL]/[CaL][H] [6]: 8.02
log K [CaL]/[Ca][L] [6]: 13.52
log K [CuHL]/[CuL][H] [7]: 8.68
log K [CuL]/[Cu][L] [7]: 17.92
maximum concentration of first protonated species [HL]^4- [8]: 71.6%
maximum concentration of fourth protonated species [H4 L]^- [8]: 55.9%
maximum concentration of second protonated species [H2 L]^3- [8]: 86.5%
maximum concentration of third protonated species [H3 L]^2- [8]: 97.7%
pH of maximum concentration of [H2 L]^3- [8]: 8.1 pH
pH of maximum concentration of [H3 L]^2- [8]: 5 pH
pH of maximum concentration of [H4 L]^- [8]: 2.7 pH
pH of maximum concentration of [HL]^4- [8]: 9.9 pH
pH range in which [H2 L]^3- is dominant [8]: 7-9 pH
pH range in which [H3 L]^2- is dominant [8]: 3.5-7 pH
pH range in which [H4 L]^- is dominant [8]: 2-3.5 pH
pH range in which [HL]^4- is dominant [8]: 9.5-10.5 pH
pH range in which deprotonated species [L]^5- is dominant [8]: greater than 12 pH
pH range in which totally protonated species [H5 L] is dominant [8]: less than 2 pH
basicity, Σ PKa [9]: 29.85
pKa [9, 13]: 10.6
pKa [9, 14]: 3.1
pKa [9, 15]: 9.12
pKa [9, 16]: 7
pM (Ca^2+) (pM value, Ca^2+): 8.20
pM (Gd^3+) (pM value, Gd^3+): 9.80

[Cl][Gd]([Cl])[Cl] [GdCl3, gadolinium chloride]
LD50, intravenous, animal ([10]; intravenously injected to animal bodies): 0.3 to 0.5 mmol/kg

O=C(O)CN1CCN(CC(=O)O)CCN(CC(=O)O)CCN(CC(=O)O)CCN(CC(=O)O)CCN(CC(=O)O)CCN(CC(=O)O)CCN(CC(=O)O)CC1 [H8 OTEC, 1,4,7,10,13,16,19,22-octaazacyclotetracosane-1,4,7,10,13,16,19,22-octaacetic acid]
water solubility of the bimetallic lanthanide complex [2]: higher water solubility

CNC(=O)CN(CCN(CCN(CC(=O)[O-])CC(=O)NC)CC(=O)[O-])CC(=O)[O-].[Gd+3] [[Gd(DTPA-BMA)], diethylenetriamine pentaacetic acid bis(methylamide)-gadolinium(III)]
Relaxivity R1 [11]: 3.74 dm^3 mmol^-1 s^-1 and 3.74 ± 0.05 dm^3 mmol^-1 s^-1
modified selectivity constant log K sel' [3]: 9.03
conditional stability constant (log Kcond) (pH 4.0): 11.25
stability constant under physiological conditions (pH 7.4) (pH 7.4): 16.95
inner-sphere water molecule by X-ray single crystal analysis ([1]; X-ray single crystal analysis): one
LD50 [10]: 14.8 mmol/kg

O=C(O)CN(CCCCN(CC(=O)O)CC(=O)O)CCCN(CC(=O)O)CC(=O)O [TTEA, 3,7,12-tri(carboxymethyl)-3,7,12-triazatetradecanedioic acid]
pM (Zn^2+) (pM value, Zn^2+): 13.08
complexation with metal ions, in words: very difficult to complex with metal ions
log K [ZnHL]/[ZnL][H] [4]: 4.7
log K [ZnL]/[Zn][L] [4]: 19.91
pM (Cu^2+) (pM value, Cu^2+): 12.63
log K [CaHL]/[CaL][H] [6]: 8.2
log K [CaL]/[Ca][L] [6]: 13.48
log K [CuHL]/[CuL][H] [7]: 9.5
log K [CuL]/[Cu][L] [7]: 17.33
maximum concentration of first protonated species [HL]^4- [8]: 67.2%
maximum concentration of fourth protonated species [H4 L]^- [8]: 45.9%
maximum concentration of second protonated species [H2 L]^3- [8]: 78.8%
maximum concentration of third protonated species [H3 L]^2- [8]: 99.0%
pH of maximum concentration of [H2 L]^3- [8]: 8.6 pH
pH of maximum concentration of [H3 L]^2- [8]: 5.2 pH
pH of maximum concentration of [H4 L]^- [8]: 2.8 pH
pH of maximum concentration of [HL]^4- [8]: 10.1 pH
pH range in which [H2 L]^3- is dominant [8]: 8-9.5 pH
pH range in which [H3 L]^2- is dominant [8]: 3.5-7.5 pH
pH range in which [H4 L]^- is dominant [8]: 2.5-3.5 pH
pH range in which [HL]^4- is dominant [8]: 9.5-11 pH
pH range in which deprotonated species [L]^5- is dominant [8]: greater than 12 pH
pH range in which totally protonated species [H5 L] is dominant [8]: less than 2 pH
basicity, Σ PKa [9]: 30.90
pKa [9, 13]: 10.7
pKa [9, 14]: 3.04
pKa [9, 15]: 9.46
pKa [9, 16]: 7.71
pM (Ca^2+) (pM value, Ca^2+): 7.64

O=C(O)CN(CCN(CC(=O)O)CC(=O)O)CCN(CC(=O)O)CC(=O)O [DTPA, diethylenetriaminepentaacetic acid, reference compound]
pM (Zn^2+) (pM value, Zn^2+): 13.39
conditional stability constant log KGdL' (pH 7.4): 18.14
pM (Cu^2+) (pM value, Cu^2+): 16.06
pM (Ca^2+) (pM value, Ca^2+): 5.45
pM (Gd^3+) (pM value, Gd^3+): 17.14

N,N-bis(2-pyridylmethyl)diethylenetriamine-N,N',N"-triacetate-gadolinium(III) [[Gd(DTPA-BP)]]
LD50 [10]: 3.2 mmol/kg
